# Patent publication US20240299394A1, “TARGETED TREATMENT FOR SKIN FRAGILITY DISEASES” (University of Washington, priority 2023, published 2024)
# Tests used:
# NHEK monolayers [1] = experiment: Monolayer mechanical dissociation assay, SERCA2 inhibition with thapsigargin; format: cell-based, human; details: with 1 μM TG, 24 hours; 1 μM Tram, 10 μM U0126, 20 μM PD98059, 1 μM dabrafenib
# Experimental: Dispase-based mechanical dissociation assays were carried out as described (Simpson C L, et al. Am J Pathol. 2010; 177(6): p. 2921-37). Keratinocytes were plated at a density of 1×10^6 cells per well of 6-well cell culture dishes. Upon reaching confluence, the calcium concentration of the medium was adjusted to 1.3 mM. Vehicle control (DMSO) or chemical inhibitors were added at the following concentrations: […] After 24 to 72 hours, monolayers were washed with PBS and then incubated with 500 μL dispase (5 U/ml) in Hank's balanced salt solution (Stemcell Technologies of Vancouver, CA, Cat. #07913) for 30 minutes at 37° C. Next, 4.5 ml PBS was added to the wells and all liquid plus released monolayers were transferred into 15 mL conical tubes, which were placed together in a rack and inverted 5-10 times to induce mechanical stress. Monolayer fragments were transferred back into 6-well cell culture plates and imaged with a 12-megapixel digital camera. Fragments were counted in Fiji.
# ERK [2] = experiment: Western blotting of pERK in NHEK lysates; format: cell-based, human; details: Dab 1 μM or Vem 10 μM alone, 24 hours in E-medium, vs DMSO
# Experimental: (§1) NHEKs were seeded at a density of 1×10^6 cells per well of 6-well cell culture dishes in M154. Upon reaching confluence, M154 was replaced with E-medium containing vehicle control (DMSO) or inhibitors at the following concentrations: Dabrafenib (1 μM), vemurafenib (10 μM), trametinib (1 μM). After 24 hours, whole-cell lysates were generated by washing cells once in phosphate-buffered saline (PBS) followed by lysis in urea sample buffer [8 M Urea, 60 mM Tris, 1% SDS, 10% glycerol, 5% β-mercaptoethanol, 0.0005% pyronin-Y, pH 6.8] for 10 min. Lysates were homogenized using a microtip probe sonicator (Fisher Scientific).
# (§2) Whole-cell lysates were loaded onto NuPAGE 12% Bis-Tris Gels (Thermo-Fisher Cat. #NP0343BOX) and separated by electrophoresis using NuPAGE MES SDS Running Buffer (Thermo-Fisher Cat. #NP0002). Proteins were transferred onto Immobilon-FL membrane (Millipore of Burlington, MA, Cat. #IPFL85R) in transfer buffer (25 mM Tris, 192 mM glycine, 20% (v/v) methanol) at 50 volts (V) for 60 minutes. Membranes were blocked in Intercept tris-buffered saline (TBS) blocking buffer (LI-COR) for 60 minutes at room temperature. Membranes were probed overnight at 4° C. with the primary antibodies diluted in Intercept TBS blocking buffer (LI-COR). […]
# ERK [3] = experiment: ERK biosensor (ERK-KTR-mClover) live imaging; format: cell-based, human; details: Dab or Vem alone, 24 h, 1.2 mM calcium
# Experimental: For live imaging of the ERK biosensor, NHEKs were transduced with ERK-KTR-mClover (Addgene Cat. #59150). HEK293FT cells were grown in complete DMEM, then transfected with 4 μg pLenti-CMV-PuroDEST-ERK-KTR-mClover DNA plus 12 μl FuGENE 6 (Promega of Madison, WI, Cat. #E2691) in 800 μL of Opti-MEM (Thermo-Fisher Cat. #31985070), which was added to the cells and left overnight. Lentiviral supernatants were collected the next day and polybrene (Sigma Cat. #H9268) was added at a concentration of 4 μg/mL. M154 was removed from NHEKs and replaced with viral medium for 1 hour at 37° C. Cells were then washed in PBS and placed back in their normal medium and expanded in culture.
# ERK-KTR-mClover-transduced cells were seeded into 35 mm glass-bottom dishes in low calcium medium (0.31 mM) and grown to confluency. […] Using Fiji (Fiji software, https://github.com/fiji/fiji), the nuclear region was encircled with the polygon tool and the “Measure” function was used to calculate the mean fluorescence intensity; after using the “Cut” function to remove the nuclear region, then remaining cytoplasmic region was encircled with the polygon tool and the “Measure” function was used to calculate the mean fluorescence intensity. The ERK activity index was calculated as the ratio of the cytoplasmic integrated fluorescence intensity (active) to the nuclear integrated fluorescence intensity.
# NHEKs = experiment: Immunoblot of cadherins and plakoglobin in NHEK lysates; format: cell-based, human; details: 24 hours in E-medium, vs DMSO
# Experimental: as §1, §2
# NHEK monolayers [4] = experiment: Monolayer mechanical dissociation assay, B-RAF inhibitor model of Grover disease; format: cell-based, human; details: Dabrafenib 1 μM or vemurafenib 10 μM alone, 24 h
# Experimental: Dispase-based mechanical dissociation assays were carried out as described (70). Keratinocytes were plated at a density of 1×10^6 cells per well of 6-well cell culture dishes. Upon reaching confluence, the cells were switched into E-medium. Vehicle control (DMSO) or chemical inhibitors were added at the following concentrations: Dabrafenib (1 μM), vemurafenib (10 μM) trametinib (1 μM), U0126 (10 μM), or PD98059 (20 μM). After 24 h, monolayers were washed with PBS and then incubated with 500 μL dispase (5 U/ml) in Hank's balanced salt solution (Stemcell Technologies of Vancouver, Canada, Cat. #07913) for 30 minutes at 37° C. Next, 4.5 mL PBS was added to the wells and all liquid plus released monolayers were transferred into 15 mL conical tubes, which were placed together in a rack and inverted 1-10 times to induce mechanical stress. Monolayer fragments were transferred back into 6-well cell culture plates and imaged with a 12-megapixel digital camera. Fragments were counted in Fiji.
# [5] = system: organotypic epidermis of NHEKs; experiment: Organotypic epidermis treated with B-RAF inhibitors (H&E, immunostaining); format: cell-based, human; details: Dab or Vem alone, 48 hours
# Experimental: Inhibitors were used at the following concentrations: Dabrafenib (1 μM), vemurafenib (10 μM), trametinib (1 μM).
# Paraffin-embedded formalin-fixed tissue cross-sections on glass slides were incubated at 65° C. for 2 hours. Sections were prepared for staining by immersion in 3 baths of xylenes (Fisher) for 5 minutes each, followed by 3 baths of 95% ethanol for 5 minutes each, then 70% ethanol for 5 minutes, and finally 3 baths of PBS for 5 minutes each.
# [6] = B-RAF inhibitor monotherapy for cancer (Carlos G, et al. 2015); cited from earlier work
smiles,measurement,setting,value
CC(C)(C)c1nc(-c2cccc(NS(=O)(=O)c3c(F)cccc3F)c2F)c(-c2ccnc(N)n2)s1 [dabrafenib],integrity of epithelial sheets despite SERCA2 inhibition,NHEK monolayers [1],"did not promote intercellular adhesion, but rather exacerbated the effect of TG"
same,pERK by Western blotting,ERK [2],sufficient to increase the active phosphorylated form of ERK (pERK)
same,ERK activity (biosensor),ERK [3],induced ERK activation
same,"protein levels of classical cadherins, desmosomal cadherins (DSG1, DSG2, DSG3) and plakoglobin",NHEKs,did not appreciably alter
same,number of fragments upon mechanical stress,NHEK monolayers [4],an increase in the number of fragments
same,number of fragments upon mechanical stress,NHEK monolayers [4]; listed as Dab,readily fragmented
same,localization of plakoglobin to cell-cell junctions,[5],reduced localization of plakoglobin to cell-cell junctions
same,patients in whom GD was seen,[6],42.9%
